Where “and” joins values, the source holds several entries; their conditions need not be identical. Identical values can stand only once. Toxic doses and inconclusive results are not listed.
Tested on: P388 leukemia ip, CD2F1 mice, survival T/C
Experiment: NCI In Vivo Anticancer Drug Screen. Data for tumor model P388 Leukemia (intraperitoneal) in CD2F1 (CDF1) mice
Details: endpoint: median survival time, higher = longer survival
In short: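 Mice carrying the transplanted tumor received test compound or vehicle. Survival was recorded in each group, and the value is the treated-group measurement divided by that of the vehicle-treated control group.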

SMILES: COc1cccc2c1C(=O)c1c(OC)c3c(c(OC)c1C2=O)C[C@@](O)(C(C)=O)C[C@@H]3OC1CC(N)C(O)C(C)O1 (stereo partly drawn)
- T/C (dose: 0.5 mg/kg/injection, schedule: Q01DX009 (ip), vehicle: water): 103 % of control
- T/C (dose: 1.0 mg/kg/injection, schedule: Q01DX009 (ip), vehicle: water): 110 % of control
- T/C (dose: 2.0 mg/kg/injection, schedule: Q01DX009 (ip), vehicle: water): 102 % of control
- T/C (dose: 4.0 mg/kg/injection, schedule: Q01DX009 (ip), vehicle: water): 106 % of control
- T/C (dose: 8.0 mg/kg/injection, schedule: Q01DX009 (ip), vehicle: water): 114 % of control and 119 % of control
- T/C (dose: 16.0 mg/kg/injection, schedule: Q01DX009 (ip), vehicle: water): 111 % of control and 123 % of control
- T/C (dose: 128.0 mg/kg/injection, schedule: Q01DX009 (ip), vehicle: water): 169 % of control

SMILES: CCCOC(=O)C1(CCl)CCC(=O)O1 (stereo not drawn)
- T/C (dose: 50.0 mg/kg/injection, schedule: Q01DX009 (ip), vehicle: Klucel (hydroxypropylcellulose) (HPC)): 101 % of control
- T/C (dose: 100.0 mg/kg/injection, schedule: Q01DX009 (ip), vehicle: Klucel (hydroxypropylcellulose) (HPC)): 103 % of control
- T/C (dose: 200.0 mg/kg/injection, schedule: Q01DX009 (ip), vehicle: Klucel (hydroxypropylcellulose) (HPC)): 103 % of control

SMILES: CCOC1CC2C(=O)C(CC)=C(OC)CC2(CC)CO1 (stereo not drawn)
- T/C (dose: 60.0 mg/kg/injection, schedule: Q01DX005 (ip), vehicle: saline with Tween-80): 98 % of control
- T/C (dose: 120.0 mg/kg/injection, schedule: Q01DX005 (ip), vehicle: saline with Tween-80): 99 % of control

SMILES: C=C(C)C(=O)OCCC[Si](OCCOC)(OCCOC)OCCOC
- T/C (dose: 50.0 mg/kg/injection, schedule: Q01DX009 (ip), vehicle: saline): 95 % of control
- T/C (dose: 100.0 mg/kg/injection, schedule: Q01DX009 (ip), vehicle: saline): 95 % of control
- T/C (dose: 200.0 mg/kg/injection, schedule: Q01DX009 (ip), vehicle: saline): 106 % of control

SMILES: CCN(CC)C(=O)CCc1ccc(Cl)cc1
- T/C (dose: 60.0 mg/kg/injection, schedule: Q01DX005 (ip), vehicle: Klucel (hydroxypropylcellulose) (HPC)): 104 % of control
- T/C (dose: 120.0 mg/kg/injection, schedule: Q01DX005 (ip), vehicle: Klucel (hydroxypropylcellulose) (HPC)): 95 % of control
- T/C (dose: 240.0 mg/kg/injection, schedule: Q01DX005 (ip), vehicle: Klucel (hydroxypropylcellulose) (HPC)): 102 % of control

SMILES: O=S(=O)(CCCl)c1ccccc1
- T/C (dose: 100.0 mg/kg/injection, schedule: Q04DX003 (ip), vehicle: Klucel (hydroxypropylcellulose) (HPC)): 104 % of control
- T/C (dose: 200.0 mg/kg/injection, schedule: Q04DX003 (ip), vehicle: Klucel (hydroxypropylcellulose) (HPC)): 106 % of control
- T/C (dose: 400.0 mg/kg/injection, schedule: Q04DX003 (ip), vehicle: Klucel (hydroxypropylcellulose) (HPC)): 97 % of control

SMILES: O=C1C(c2ccccc2)=C(c2ccccc2)C2(c3ccccc3)Oc3c(Cl)c(Cl)c(Cl)c(Cl)c3OC12c1ccccc1 (stereo not drawn)
- T/C (dose: 50.0 mg/kg/injection, schedule: Q01DX009 (ip), vehicle: saline with Tween-80): 89 % of control
- T/C (dose: 100.0 mg/kg/injection, schedule: Q01DX009 (ip), vehicle: saline with Tween-80): 93 % of control

Reference: PubChem BioAssay AID330 (DTP/NCI, 2004)
